This passage reports EC50 results from patent US9260408B2, “Dihydroquinoline-2-one derivatives” (Hoffmann-La Roche Inc., priority 2011, dated 2016).

What is called pEC50 is the negative decadic logarithm of the EC50, by convention in mol/L.

For one experiment, the target named is T1, human CYP11B1 (Homo sapiens, UniProt P15538).
T1 construct: expressed in transfected cells
T1 sequence (P15538 25-503): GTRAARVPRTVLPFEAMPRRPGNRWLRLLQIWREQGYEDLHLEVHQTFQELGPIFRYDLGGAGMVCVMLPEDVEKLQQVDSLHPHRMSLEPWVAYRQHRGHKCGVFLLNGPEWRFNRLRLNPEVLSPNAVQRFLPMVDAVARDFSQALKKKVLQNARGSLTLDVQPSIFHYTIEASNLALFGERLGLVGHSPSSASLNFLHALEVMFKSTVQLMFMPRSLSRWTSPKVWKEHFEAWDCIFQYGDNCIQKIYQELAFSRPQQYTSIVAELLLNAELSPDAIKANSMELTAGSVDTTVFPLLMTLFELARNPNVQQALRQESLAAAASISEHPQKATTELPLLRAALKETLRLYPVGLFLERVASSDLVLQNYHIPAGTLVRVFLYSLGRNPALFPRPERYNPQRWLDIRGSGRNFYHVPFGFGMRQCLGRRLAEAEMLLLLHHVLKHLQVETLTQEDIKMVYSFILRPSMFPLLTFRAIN
Kind of experiment: G-402 cellular enzyme assay, human CYP11B1 (cortisol release, HTRF). To be noted: G-402 cells expressing human CYP11B1; 1 μM Deoxycortisol. Format: cell-based. The source says: (§1) Herein we identified the use of the G-402 cell line as a host cell to ectopically express (transiently or stably) enzymes of the CYP11 family. Specifically we developed stable G-402 cells expressing ectopically human CYP11B1, human CYP11B2, human CYP11A1, cynomolgus CYP11B1 or cynomolgus CYP11B2 enzyme activity. Importantly the identified cell line G-402 expresses co-factors (adrenodoxin and adrenodoxin reductase) important for the activity of the CYP11 family and no relevant enzyme activity of the CYP11 family (in comparison to H295R cells) was detected in these cells. Therefore the G-402 cell line is uniquely suited as a host cell for the ectopic expression of enzymes from the CYP11 family.
(§2) G-402 cells can be obtained from ATCC(CRL-1440) and were originally derived from a renal leiomyoblastoma.
(§3) The expression plasmids contains the ORF for either human/cyno CYP11B1 or CYP11B2 under the control of a suitable promoter (CMV-promoter) and a suitable resistance marker (neomycin). Using standard techniques the expression plasmid is transfected into G-402 cells and these cells are then selected for expressing the given resistance markers. Individual cell-clones are then selected and assessed for displaying the desired enzymatic activity using 11-Deoxycorticosterone (Cyp11B2) or 11-Deoxycortisol (Cyp11B1) as a substrate.
(§4) G-402 cells expressing CYP11 constructs were established as described above and maintained in McCoy's 5a Medium Modified, ATCC Catalog No. 30-2007 containing 10% FCS and 400 μg/ml G418 (Geneticin) at 37° C. under an atmosphere of 5% CO2/95% air. Cellular enzyme assays were performed in DMEM/F12 medium containing 2.5% charcoal treated FCS and appropriate concentration of substrate (0.3-10 uM 11-Deoxycorticosterone, 11-Deoxycortisol or Corticosterone). For assaying enzymatic activity, cells were plated onto 96 well plates and incubated for 16 h. An aliquot of the supernatant is then transferred and analyzed for the concentration of the expected product (Aldosterone for CYP11B2; Cortisol for CYP11B1). The concentrations of these steroids can be determined using HTRF assays from CisBio analyzing either Aldosterone or Cortisol.
(§5) Inhibition of the release of produced steroids can be used as a measure of the respective enzyme inhibition by test compounds added during the cellular enzyme assay. The dose dependent inhibition of enzymatic activity by a compound is calculated by means of plotting added inhibitor concentrations (x-axes) vs. measured steroid/product level (y-axes). The inhibition is then calculated by fitting the following 4-parameter sigmoidal function (Morgan-Mercer-Flodin (MMF) model) to the raw data points using the least squares method:
(§6) [formula] wherein, A is the maximum y value, B is the EC50 factor determined using XLFit, C is the minimum y value and D is the slope value.
(§7) EC50 values for compounds claimed herein were tested with the G402-based assay system described. Cyp11B2 enzyme activity was tested in presence of 1 μM Deoxycorticosterone and variable amounts of inhibitors; Cyp11B1 enzyme activity was tested in presence of 1 μM Deoxycortisol and variable amounts of inhibitors.
On the technique in general: TR-FRET usually uses a lanthanide donor and a delayed reading to cut background.

The next experiment addresses T2, human CYP11B2 (Homo sapiens, UniProt P19099).
T2 construct: expressed in transfected cells
T2 sequence (P19099 25-503): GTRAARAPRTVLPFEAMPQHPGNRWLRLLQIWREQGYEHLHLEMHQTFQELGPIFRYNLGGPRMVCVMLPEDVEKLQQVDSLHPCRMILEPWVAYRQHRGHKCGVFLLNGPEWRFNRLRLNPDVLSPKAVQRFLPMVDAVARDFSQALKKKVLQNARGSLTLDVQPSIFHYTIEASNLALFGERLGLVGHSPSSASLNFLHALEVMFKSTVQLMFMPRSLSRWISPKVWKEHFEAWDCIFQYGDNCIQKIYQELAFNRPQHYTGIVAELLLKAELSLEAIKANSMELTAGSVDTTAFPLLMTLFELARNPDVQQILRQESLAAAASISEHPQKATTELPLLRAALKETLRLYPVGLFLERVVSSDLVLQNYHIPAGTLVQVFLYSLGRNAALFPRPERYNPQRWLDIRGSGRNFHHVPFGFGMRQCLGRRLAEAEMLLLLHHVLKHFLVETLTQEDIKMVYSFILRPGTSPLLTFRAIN
Kind of experiment: G-402 cellular enzyme assay, human CYP11B2 (aldosterone release, HTRF). As to conditions: G-402 cells expressing human CYP11B2; 1 μM Deoxycorticosterone. The class given is cell-based.
Text: as §1, §2, §3, §4, §5, §6, §7

pEC50: −log10 of the molar value. Structures can show the parent of a compound that is named as a salt.

Regarding `Cc1c(CN)cncc1-c1ccc2c(c1)CCC(=O)N2C` [Example 222, 6-(5-Aminomethyl-4-methyl-pyridin-3-yl)-1-methyl-3,4-dihydro-1H-quinolin-2-one hydrochloride], the figures for the negative logarithm of the EC50 (pEC50) on human CYP11B1 and at human CYP11B2 were 6.00 and 8.40, respectively.

`CCC(NS(=O)(=O)CC)c1cncc(-c2ccc3c(c2)CCC(=O)N3C)c1` (racemic) [Example 180, (rac)-Ethanesulfonic acid {1-[5-(1-methyl-2-oxo-1,2,3,4-tetrahydro-quinolin-6-yl)-pyridin-3-yl]-propyl}-amide]: the pEC50 at human CYP11B1 was 5.72; on human CYP11B2, 7.48.

For `CN1C(=O)CCc2cc(-c3cncc(CNS(=O)(=O)C(F)(F)F)c3)ccc21` [Example 163, C,C,C-Trifluoro-N-[5-(1-methyl-2-oxo-1,2,3,4-tetrahydro-quinolin-6-yl)-pyridin-3-ylmethyl]-methanesulfonamide], the pEC50 is 5.62 at human CYP11B1 and 7.21 at human CYP11B2.

As for `Cn1c(=O)ccc2cc(-c3cncc(C4(N)CC4)c3)ccc21` [Example 262, 6-[5-(1-Amino-cyclopropyl)-pyridin-3-yl]-1-methyl-1H-quinolin-2-one], the pEC50 at human CYP11B1 was 5.74; at human CYP11B2, 7.08.

With `CN1C(=O)CCc2cc(-c3cncc(CNC(=O)CC(F)(F)F)c3)ccc21` [Example 78], the pEC50 is 5.94 at human CYP11B1 and 6.92 at human CYP11B2.

With `CN1C(=O)CCc2cc(-c3cncc(O[C@H]4CCN(C(=O)OC(C)(C)C)C4)c3)c(F)cc21` [Example 52, (S)-3-[5-(7-fluoro-1-methyl-2-oxo-1,2,3,4-tetrahydro-quinolin-6-yl)-pyridin-3-yloxy]-pyrrolidine-1-carboxylic acid tert-butyl ester], the negative-log EC50 (pEC50) at human CYP11B1 is 6.86; at human CYP11B2 it was 7.52.

With `CCS(=O)(=O)N(C)Cc1cncc(-c2ccc3c(c2)CCC(=O)N3C)c1` [Example 182, Ethanesulfonic acid methyl-[5-(1-methyl-2-oxo-1,2,3,4-tetrahydro-quinolin-6-yl)-pyridin-3-ylmethyl]-amide], the values for the pEC50 on human CYP11B1 and at human CYP11B2 were 6.52 and 8.22, respectively.

For the compound `CN1C(=O)CCc2cc(-c3cncc(N4CCC[C@H]4Cn4cncn4)c3)ccc21` [Example 11], the pEC50 is 6.39 at human CYP11B1 and 7.12 at human CYP11B2.

`CN1C(=O)CCc2cc(-c3cncc(O[C@H]4CC[C@H](N)CC4)c3)ccc21` [Example 71, 6-[5-((trans)-4-amino-cyclohexyloxy)-pyridin-3-yl]-1-methyl-3,4-dihydro-1H-quinolin-2-one hydrochloride]: the pEC50 on human CYP11B1 was 5.60; at human CYP11B2, 7.09.

On to `CN1C(=O)CCc2cc(-c3cncc(CN4CCS(=O)(=O)CC4)c3)ccc21` [Example 20], for which the pEC50 was 7.70 on human CYP11B1 and 8.52 on human CYP11B2.

Regarding `CCS(=O)(=O)NCc1cncc(-c2cc(F)c3c(ccc(=O)n3C)c2)c1` [Example 263, Ethanesulfonic acid [5-(8-fluoro-1-methyl-2-oxo-1,2-dihydro-quinolin-6-yl)-pyridin-3-ylmethyl]-amide], on human CYP11B2, the pEC50 is 5.51.

Consider `CCS(=O)(=O)NCc1cncc(-c2ccc3c(c2)CCC(=O)N3C)c1` [Example 15], for which the figures for the pEC50 on human CYP11B1 and on human CYP11B2 were 5.92 and 7.72, respectively.

On to `CCC(=O)NCc1cncc(-c2cc3c(cc2F)N(C)C(=O)CC3)c1` [Example 212, N-[5-(7-Fluoro-1-methyl-2-oxo-1,2,3,4-tetrahydro-quinolin-6-yl)-pyridin-3-ylmethyl]-propionamide], for which the pEC50 on human CYP11B1 is 5.32; at human CYP11B2 it was 7.29.

As to `CCS(=O)(=O)N1CC[C@H](Oc2cncc(-c3ccc4c(c3)CCC(=O)N4C)c2)C1` [Example 164, 6-[5-((S)-1-Ethanesulfonyl-pyrrolidin-3-yloxy)-pyridin-3-yl]-1-methyl-3,4-dihydro-1H-quinolin-2-one], the pEC50 was 6.68 at human CYP11B1 and 8.05 at human CYP11B2.

Regarding `CCC1(NCc2cncc(-c3ccc4c(c3)CCC(=O)N4C)c2)COC1` [Example 206, 6-{5-[(3-Ethyl-oxetan-3-ylamino)-methyl]-pyridin-3-yl}-1-methyl-3,4-dihydro-1H-quinolin-2-one], the figures for the pEC50 on human CYP11B1 and on human CYP11B2 were 6.63 and 8.00, respectively.

On to `Cc1cc(Cl)cnc1C(=O)NCc1cncc(-c2ccc3c(c2)CCC(=O)N3C)c1` [Example 120], for which, at human CYP11B1, the pEC50 was 8.10.

`CCS(=O)(=O)NC(c1cncc(-c2ccc3c(c2)CCC(=O)N3C)c1)C(C)C` (racemic) [Example 176, (rac)-Ethanesulfonic acid {2-methyl-1-[5-(1-methyl-2-oxo-1,2,3,4-tetrahydro-quinolin-6-yl)-pyridin-3-yl]-propyl}-amide] showed a pEC50 at human CYP11B2 of 6.89.

Turning to `COc1cc(C(=O)N2CC3(C2)CN(c2cncc(-c4ccc5c(c4)CCC(=O)N5C)n2)C3)on1` [Example 74, 6-{6-[6-(3-Methoxy-isoxazole-5-carbonyl)-2,6-diaza-spiro[3.3]hept-2-yl]-pyrazin-2-yl}-1-methyl-3,4-dihydro-1H-quinolin-2-one], on human CYP11B2, the pEC50 was 6.54.

Compound `CN1C(=O)CCc2cc(-c3cncc(C4(N[S@+]([O-])C(C)(C)C)COC4)c3)ccc21` [Example 54, (R)-2-Methyl-propane-2-sulfinic acid {3-[5-(1-methyl-2-oxo-1,2,3,4-tetrahydro-quinolin-6-yl)-pyridin-3-yl]-oxetan-3-yl}-amide] showed a pEC50 on human CYP11B1 of 5.41.

For the compound `CCS(=O)(=O)N(C)CCOc1cncc(-c2cc3c(cc2F)N(C)C(=O)CC3)c1` [Example 248, Ethanesulfonic acid {2-[5-(7-fluoro-1-methyl-2-oxo-1,2,3,4-tetrahydro-quinolin-6-yl)-pyridin-3-yloxy]-ethyl}-methyl-amide], the pEC50 at human CYP11B1 is 8.15.

Regarding `CN1C(=O)CCc2cc(-c3cncc(OC[C@@H]4CCCN4)c3)ccc21` [Example 66, 1-Methyl-6-[5-((S)-1-pyrrolidin-2-ylmethoxy)-pyridin-3-yl]-3,4-dihydro-1H-quinolin-2-one hydrochloride], the pEC50 on human CYP11B2 is 6.15.

On human CYP11B2, `CN1C(=O)CCc2cc(-c3cncc(O[C@H]4CCNC4)c3)ccc21` [Example 60, 1-methyl-6-[5-((S)-pyrrolidin-3-yloxy)-pyridin-3-yl]-3,4-dihydro-1H-quinolin-2-one hydrochloride] gave a pEC50 of 6.16.

The compound `CN1C(=O)CCc2cc(-c3cncc(C4CCN(C(=O)OC(C)(C)C)CC4)c3)ccc21` [Example 260, 5-(1-Methyl-2-oxo-1,2,3,4-tetrahydro-quinolin-6-yl)-3′,4′,5′,6′-tetrahydro-2′H-[3,4′]bipyridinyl-1′-carboxylic acid tert-butyl ester] had a pEC50 at human CYP11B1 of 9.00.
